# Laboratory results: ChEMBL document CHEMBL4311967, “Continued exploration and tail approach synthesis of benzenesulfonamides containing triazole and dual triazole moieties as carbonic anhydrase I, II, IV and IX inhibitors” (Eur J Med Chem, 2019)
# Target: Carbonic anhydrase 9 (Homo sapiens, UniProt Q16790)
# Test: Inhibition of human carbonic anhydrase 9 assessed as reduction in CO2 hydration incubated for 1 hr by phenol red staining-based stopped flow assay
row,SMILES,Ki
1,Cc1c(-c2n[nH]c(=S)[nH]2)nnn1-c1ccc(S(N)(=O)=O)cc1,1.24 µM
2,NS(=O)(=O)c1ccc(-n2nnc(-c3nnc(SCC(=O)c4ccc(Cl)cc4)[nH]3)c2-c2ccccc2)cc1,0.477 µM
3,Cc1ccc(C(=O)CSc2nnc(-c3nnn(-c4ccc(S(N)(=O)=O)cc4)c3-c3ccccc3)[nH]2)cc1,0.294 µM
4,Cc1c(-c2nnc(SCC(=O)c3ccc(Br)cc3)[nH]2)nnn1-c1ccc(S(N)(=O)=O)cc1,2.83 µM
5,Cc1c(-c2nnc(SCC(=O)c3ccc(F)cc3)[nH]2)nnn1-c1ccc(S(N)(=O)=O)cc1,3.02 µM
6,Cc1c(C(=O)NNC(N)=S)nnn1-c1ccc(S(N)(=O)=O)cc1,2.97 µM
7,NS(=O)(=O)c1ccc(-n2nnc(-c3nnc(SCC(=O)c4ccc(-c5ccccc5)cc4)[nH]3)c2-c2ccccc2)cc1,0.734 µM
8,Cc1c(-c2nnc(SCC(=O)c3cccc([N+](=O)[O-])c3)[nH]2)nnn1-c1ccc(S(N)(=O)=O)cc1,2.43 µM
9,Cc1c(-c2nnc(SCC(=O)c3ccccc3)[nH]2)nnn1-c1ccc(S(N)(=O)=O)cc1,3.2 µM
10,Cc1ccc(C(=O)CSc2nnc(-c3nnn(-c4ccc(S(N)(=O)=O)cc4)c3C)[nH]2)cc1,3.07 µM
11,Cc1c(-c2nnc(SCC(=O)c3cccc(Br)c3)[nH]2)nnn1-c1ccc(S(N)(=O)=O)cc1,1.47 µM
12,Cc1c(-c2nnc(SCC(=O)c3ccc(Cl)cc3)[nH]2)nnn1-c1ccc(S(N)(=O)=O)cc1,3.19 µM
13,Cc1c(-c2nnc(SCC(=O)c3ccc([N+](=O)[O-])cc3)[nH]2)nnn1-c1ccc(S(N)(=O)=O)cc1,3.06 µM

# Compounds with a lower Ki, results first:
row,Ki,SMILES
1,0.192 µM,NS(=O)(=O)c1ccc(-n2nnc(-c3nnc(SCC(=O)c4cccc([N+](=O)[O-])c4)[nH]3)c2-c2ccccc2)cc1
2,0.177 µM,NS(=O)(=O)c1ccc(-n2nnc(-c3nnc(SCC(=O)c4ccc(Br)cc4)[nH]3)c2-c2ccccc2)cc1
3,0.204 µM,NS(=O)(=O)c1ccc(-n2nnc(-c3nnc(SCC(=O)c4ccc([N+](=O)[O-])cc4)[nH]3)c2-c2ccccc2)cc1
4,0.278 µM,NS(=O)(=O)c1ccc(-n2nnc(-c3nnc(SCC(=O)c4cccc(Br)c4)[nH]3)c2-c2ccccc2)cc1
5,0.226 µM,Cc1c(-c2nnc(SCC(=O)c3ccc(-c4ccccc4)cc3)[nH]2)nnn1-c1ccc(S(N)(=O)=O)cc1
6,0.051 µM,NS(=O)(=O)c1ccc(-n2nnc(-c3n[nH]c(=S)[nH]3)c2-c2ccccc2)cc1
7,0.177 µM,NS(=O)(=O)c1ccc(-n2nnc(-c3nnc(SCC(=O)c4ccc(F)cc4)[nH]3)c2-c2ccccc2)cc1
8,0.111 µM,NC(=S)NNC(=O)c1nnn(-c2ccc(S(N)(=O)=O)cc2)c1-c1ccccc1
9,0.135 µM,NS(=O)(=O)c1ccc(-n2nnc(-c3nnc(SCC(=O)c4ccccc4)[nH]3)c2-c2ccccc2)cc1
